≈ marks a conversion by molar mass, not a printed value.
Experiments:
[1] = system: B. cepacia; assay: FIC checkerboard assay; assay type: cell-based; details: during FIC testing
[2] = system: Escherichia coli; assay: Broth microdilution MIC (Example 12)
[3] = system: Pseudomonas aeruginosa; assay: Broth microdilution MIC (Example 12)
[4] = system: Acinetobacter baumannii; assay: Broth microdilution MIC (Example 12)
[5] = system: B. cenocepacia; assay: FIC checkerboard assay; assay type: cell-based; details: during FIC testing
[6] = system: P. aeruginosa; assay: FIC checkerboard assay; assay type: cell-based; details: during FIC testing
[7] = system: Pseudomonas aeruginosa strain PA01; assay: Bacterial killing curves with and without CF patient sputum

C[C@@H](O)[C@H]1C(=O)N2C(C(=O)O)=C(S[C@@H]3CN[C@H](C(=O)N(C)C)C3)[C@H](C)[C@H]12 [MEM]
MIC ([1]; B. cepacia isolate 0546): 4 µg/mL | MIC ([1]; B. cepacia isolate 1793): 4 µg/mL | MIC ([2]; E. coli ATCC 35218, ESBL): ≤0.008 µg/mL | MIC ([2]; E. coli ATCC BAA-2471, NDM): >8 µg/mL | MIC ([2]; E. coli CDC 114, ESBL/KPC): 2 µg/mL (≈ 5.22 µM) | MIC ([2]; E. coli CDC 118, ESBL/NDM): 0.06 µg/mL (≈ 0.156 µM) | MIC ([2]; E. coli CDC 435, NDM): >8 µg/mL | MIC ([2]; E. coli CDC 451, KPC): 1 µg/mL (≈ 2.61 µM) | MIC ([2]; E. coli CDC 503, ESBL/NDM): 8 µg/mL (≈ 20.9 µM) | MIC ([2]; E. coli MMX 5745, KPC): 2 µg/mL (≈ 5.22 µM) | MIC ([2]; E. coli MMX 5755, ESBL): 0.015 µg/mL (≈ 0.0391 µM) | MIC ([2]; E. coli MMX 5756, ESBL): ≤0.008 µg/mL | MIC ([2]; E. coli MMX 5758, ESBL): ≤0.008 µg/mL | MIC ([3]; P. aeruginosa CDC 230, VIM/OXA): >8 µg/mL | MIC ([3]; P. aeruginosa CDC 231, KPC/OXA): >8 µg/mL | MIC ([3]; P. aeruginosa CDC 241, IMP/OXA): >8 µg/mL | MIC ([3]; P. aeruginosa CDC 246, NDM/OXA): >8 µg/mL | MIC ([3]; P. aeruginosa CDC 250, NDM/OXA): >8 µg/mL | MIC ([3]; P. aeruginosa CDC 356, KPC): >8 µg/mL | MIC ([3]; P. aeruginosa CDC 439, IMP): >8 µg/mL | MIC ([3]; P. aeruginosa CDC 444, VIM): >8 µg/mL | MIC ([3]; P. aeruginosa CDC 457, VIM): >8 µg/mL | MIC ([3]; P. aeruginosa CDC 516, KPC/AmpC): >8 µg/mL | MIC ([3]; P. aeruginosa CDC 518, KPC/AmpC): >8 µg/mL | MIC ([4]; A. baumannii CDC 273, ESBL/OXA): >8 µg/mL | MIC ([4]; A. baumannii CDC 274, ESBL/OXA): >8 µg/mL | MIC ([4]; A. baumannii CDC 275, ESBL/OXA): >8 µg/mL | MIC ([4]; A. baumannii CDC 277, ESBL/OXA): >8 µg/mL | MIC ([4]; A. baumannii CDC 284, ESBL/OXA): >8 µg/mL | MIC ([4]; A. baumannii CDC 307, OXA): 8 µg/mL (≈ 20.9 µM) | MIC ([4]; A. baumannii CDC 308, ESBL/OXA): 8 µg/mL (≈ 20.9 µM) | MIC ([4]; A. baumannii CDC 311, OXA): >8 µg/mL | MIC ([4]; A. baumannii CDC 312, OXA): 4 µg/mL (≈ 10.4 µM) | MIC ([4]; A. baumannii CDC 313, ESBL/OXA): >8 µg/mL | MIC ([4]; A. baumannii NCTC 13304, OXA): >8 µg/mL | MIC ([5]; B. cenocepacia isolate 0548 (CIP-R)): 4 µg/mL | MIC ([5]; B. cenocepacia isolate 0813 (CIP-I)): 2 µg/mL | MIC ([6]; P. aeruginosa isolate 103 (ATCC 25922), each agent tested alone, one replicate, for QC): 1 µg/mL | MIC ([6]; P. aeruginosa isolate 6322 (MEM-R, TOB-R, AMK-R, CIP-R, AZT-R)): 16 µg/mL | MIC ([6]; P. aeruginosa isolate 6977 (MEM-I, TOB-R, CIP-R, AZT-I)): 8 µg/mL | MIC ([6]; P. aeruginosa isolate 7745 (MEM-R, CIP-R, AZT-R)): 16 µg/mL | MIC ([6]; P. aeruginosa isolate 8798 (MEM-R, TOB-R, AMK-R, CIP-R, AZT-R, COL-R)): 32 µg/mL | MIC ([6]; P. aeruginosa isolate 9108 (CIP-R, AZT-I)): 1 µg/mL

C1C[S][Bi]([S]CC[S][Bi]2[S]CC[S]2)[S]1 [BisEDT, bismuth-1,2-ethanedithiol]
bactericidal activity against PA01 ([7]; 0.1 μg/mL): not bactericidal | effect of CF patient sputum on bactericidal activity ([7]; 10% CF patient sputum): partially inhibited

— patent US11464749B2, “Bismuth-thiol compositions and methods of use” (Microbion Corporation, priority 2018, dated 2022)
